The values below come from US20060069132A1, “Azolecarboxamide herbicides” (priority 2004, published 2006).

One assay deals with large crabgrass. Briefly: Test A pre-/postemergence herbicide test. As to conditions: for pest or weed control at 125 g/ha / pest or weed control at 500 g/ha: Digitaria sanguinalis, 240 h, read-out: Crabgrass, Large plant response rating; for pest or weed control at 125 g/ha: 125 g ai/ha. Type of assay: in vivo, Digitaria sanguinalis. The essentials: (§1)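 Plants are held in greenhouse about ten days after treatment, then compared with untreated controls and scored 0 (no effect) to 100 (complete control). Preemergence dosing is a directed soil spray on sown sandy loam; postemergence dosing is spray to runoff at 2–10 cm height.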

The next assay deals with giant foxtail. Briefly: Test A pre-/postemergence herbicide test. Type of assay: in vivo, Setaria faberi. As to conditions: for pest or weed control at 125 g/ha / pest or weed control at 500 g/ha: Setaria faberi, 240 h, read-out: Foxtail, Giant plant response rating; for pest or weed control at 125 g/ha: 125 g ai/ha. The essentials: as §1
The test system of the next assay is rice. Briefly: Test C flooded paddy test. Type of assay: in vivo, Oryza sativa. The essentials: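 Injury scored visually against controls on a 0 (no effect) to 100 (complete control) scale, 12 to 14 days after treatment in greenhouse. Flooded paddy plants treated at 2-leaf stage; postemergence plants at 1- to 4-leaf stage, 2 to 18 cm tall.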
For the next assay, the system named is redroot pigweed. Briefly: Test A pre-/postemergence herbicide test. The assay is classed as in vivo, Amaranthus retroflexus. As to conditions: for pest or weed control at 125 g/ha / pest or weed control at 500 g/ha: Amaranthus retroflexus, 240 h, read-out: Pigweed plant response rating; for pest or weed control at 125 g/ha: 125 g ai/ha. The essentials:
as §1

The mark [1] stands for this setting: Postemergence, 500 g ai/ha, 0 to 100 scale, 0 no effect, 100 complete control.
The mark [2] stands for this setting: Postemergence, 2000 g ai/ha, 0 to 100 scale, 0 no effect, 100 complete control.
Setting [3] is: Preemergence, 500 g ai/ha, visual rating, 0 to 100 scale (0 no effect, 100 complete control).
The mark [4] stands for this setting: Preemergence, 2000 g ai/ha, visual rating, 0 to 100 scale (0 no effect, 100 complete control).
The mark [5] stands for this setting: 125 g ai/ha, scale 0 to 100 (0 no effect, 100 complete control).
Where [6] appears, read: 250 g ai/ha, scale of 0 to 100, 0 is no effect, 100 is complete control.
Where [7] appears, read: 500 g ai/ha, visual rating after 12 to 14 days, scale 0 to 100 (0 no effect, 100 complete control).
[8] abbreviates: preemergence, 500 g ai/ha, visual injury, 0 to 100 scale (0 no effect, 100 complete control).
Setting [9] is: post-emergence, Postemergence, 0 to 100 scale, 0 no effect, 100 complete control.
Setting [10] is: post-emergence, Postemergence, 500 g ai/ha, 0 to 100 scale, 0 no effect, 100 complete control.
[11] abbreviates: pre-emergence, preemergence, visual injury, 0 to 100 scale (0 no effect, 100 complete control).
Where [12] appears, read: pre-emergence, preemergence, 500 g ai/ha, visual injury, 0 to 100 scale (0 no effect, 100 complete control).

The structures appear in SMILES notation. Read-outs that look alike come from different tables or passages of the source.

With `C=Cn1nc(C(C)(C)C)cc1C(=O)Nc1cccc(C(C)=O)c1` [Compound 127], the “Crabgrass, Large plant response rating” value was 15 with large crabgrass (setting [1]), 75 in the assay with large crabgrass (setting [3]) and 85 in the assay with large crabgrass (setting [4]). Moreover, the “Plant response rating, Crabgrass, Large” value in the assay with large crabgrass (setting [2]) is 35. Further, the “Foxtail, Giant plant response rating” value is recorded as 30 in the assay with giant foxtail (setting [1]), 20 in the assay on giant foxtail (setting [3]) and 35 in the assay with giant foxtail (setting [4]). For the same compound, in the assay with giant foxtail (setting [2]), the “Plant response rating, Foxtail, Giant” value came out at 30. Besides, the “Rice plant response rating” value with rice (62 g ai/ha, scale 0 to 100 (0 no effect, 100 complete control)) came out at 20; with rice (setting [5]) it was 25; in the assay with rice (setting [6]), 25. Further, in the assay with rice (setting [7]), the “Plant response rating, Rice” value came to 25. Further, the “Pigweed plant response rating” value in the assay on redroot pigweed (setting [1]) turned out to be 40; with redroot pigweed (setting [4]) it was 50; in the assay with redroot pigweed (setting [8]) it was 40. Moreover, the “Plant response rating, Pigweed” value in the assay on redroot pigweed (setting [2]) is listed as 50.

On to `CCn1nc(C(C)(C)C)c(F)c1C(=O)Nc1cc(C(=O)N(C)C)ccc1F` [Compound 276, N-[5-[(dimethylamino)carbonyl]-2-fluorophenyl]-3-(1,1-dimethylethyl)-1-ethyl-4-fluoro-1H-pyrazole-5-carboxamide], for which the plant injury at 62 g/ha in the assay on rice (Oryza sativa, 62 g ai/ha, scale 0 to 100, read-out: Rice plant response rating) amounted to 0%. The plant injury at 125 g/ha in the assay with rice (Oryza sativa, 125 g ai/ha, scale 0 to 100 (0 no effect, 100 complete control), read-out: Rice plant response rating) was 15%. Besides, the plant injury at 250 g/ha in the assay with rice (Oryza sativa, 250 g ai/ha, scale of 0 to 100, 0 is no effect, 100 is complete control, read-out: Rice plant response rating) was 50%. Also, in the assay on rice (Oryza sativa, 500 g ai/ha, visual rating after 12 to 14 days, scale 0 to 100 (0 no effect, 100 complete control), read-out: Plant response rating, Rice), the plant injury at 500 g/ha came out at 70%.

For the compound `C=CCN(C)C(=O)c1cccc(NC(=O)c2cc(C(C)(C)C)nn2CC)c1` [Compound 285], the “Crabgrass, Large plant response rating” value turned out to be 15 in the assay on large crabgrass (setting [1]), 85 with large crabgrass (setting [4]) and 60 with large crabgrass (setting [8]). Further, in the assay with large crabgrass (setting [2]), the “Plant response rating, Crabgrass, Large” value was 35. The “Foxtail, Giant plant response rating” value with giant foxtail (setting [1]) is reported as 25; in the assay with giant foxtail (setting [4]) it was 90; in the assay on giant foxtail (setting [8]), 60. The “Plant response rating, Foxtail, Giant” value in the assay on giant foxtail (setting [2]) was determined as 55. In addition, the “Rice plant response rating” value with rice (62 g ai/ha, scale 0 to 100) came out at 25; in the assay with rice (setting [5]), 40; in the assay with rice (setting [6]), 45. Moreover, in the assay with rice (setting [7]), the “Plant response rating, Rice” value turned out to be 65. In addition, the figures for the “Pigweed plant response rating” value with redroot pigweed (setting [1]), in the assay with redroot pigweed (setting [4]) and with redroot pigweed (setting [8]) were 80, 100 and 100, respectively. The “Plant response rating, Pigweed” value with redroot pigweed (setting [2]) is 100.

Take `CCOC(=O)c1cccc(NC(=O)c2cc(C(C)(C)C)nn2C)n1` [Compound 313]: the “Crabgrass, Large plant response rating” value came out at 70 in the assay with large crabgrass (setting [1]), 95 with large crabgrass (setting [4]) and 85 in the assay with large crabgrass (setting [8]). Further, the “Plant response rating, Crabgrass, Large” value in the assay on large crabgrass (setting [2]) came out at 100. The “Foxtail, Giant plant response rating” value with giant foxtail (setting [1]) is recorded as 70; in the assay with giant foxtail (setting [4]) it was 90; in the assay with giant foxtail (setting [8]), 75. For the same compound, in the assay on giant foxtail (setting [2]), the “Plant response rating, Foxtail, Giant” value is reported as 80. In addition, the “Rice plant response rating” value with rice (16 g ai/ha, scale 0 to 100) is 0; with rice (31 g ai/ha, scale 0 to 100), 0; with rice (62 g ai/ha, scale 0 to 100) it was 0; with rice (setting [5]), 20. Moreover, the “Pigweed plant response rating” value with redroot pigweed (setting [1]) is reported as 100; in the assay on redroot pigweed (setting [4]) it was 100; in the assay with redroot pigweed (setting [8]), 95. Besides, the “Plant response rating, Pigweed” value in the assay with redroot pigweed (setting [2]) was determined as 100.

In the case of `CCNC(=O)c1cccc(NC(=O)c2nc(C(C)(C)C)nn2CC)c1` [Compound 446, 3-(1,1-dimethylethyl)-1-ethyl-N-[3-[(ethylamino)carbonyl]phenyl]-1H-1,2,4-triazole-5-carboxamide], the pest or weed control at 125 g/ha in the assay with large crabgrass (setting [9]) stood at 45%; with large crabgrass (setting [11]), 10%; in the assay with giant foxtail (setting [9]) it was 75%; with giant foxtail (setting [11]), 70%; in the assay on redroot pigweed (setting [9]) it was 65%; in the assay with redroot pigweed (setting [11]), 90%. Moreover, the pest or weed control at 500 g/ha in the assay with large crabgrass (setting [10]) came to 65%; in the assay on large crabgrass (setting [12]), 40%; with giant foxtail (setting [10]), 90%; with giant foxtail (setting [12]), 95%; in the assay on redroot pigweed (setting [10]) it was 80%; with redroot pigweed (setting [12]), 100%.
